pIC50: −log10 of the molar value.
Experiments:
[1] = Pharmacokinetics in monkey, oral; format: in vivo; conditions: 5 mg/kg oral
Text: (§1) Compound BB's oral exposure is high in rat, dog and monkey. Good oral bioavailability and low clearance in rodent and non-rodent animal species results in high oral exposure.

[2] = In vitro toxicology studies
[3] = Pharmacokinetics in rat, oral; format: in vivo
Text: as §1

[4] = Cellular membrane permeability; format: in vitro ADME
Text: (§2) These properties indicate the compound's suitability for in vivo administration.

Plasma protein binding = format: in vitro ADME; conditions: all species, read-out: PPB % free @ 1 uM
[5] = Target organ toxicity (TOT) study, 10 days oral; format: in vivo
Protocol: A target organ toxicity (TOT) study was performed in rats. […] This study assessed clinical observations/mortality, body weights, clinical pathology, toxicokinetics, and histopathology of select tissues. The tissues studied were: Adrenal gland, Bone marrow (femur), Brain, Small Intestine (including GALT), Heart, Large Intestine, Kidney, Stomach, Liver, Pancreas, Spleen, Testis, and Thymus. Doses were selected based on repeat-dose tolerability study, PK and plasma protein binding, and cellular IC50s for PI3K isoforms.

Farage cell line = assay: Combination isobologram in Farage cell line; format: cell-based; conditions: combination of Compound AA and Compound BB
Cytochrome P450 isoforms = assay: Cytochrome P450 inhibition; format: in vitro ADME
Text: as §2

[6] = tested on: Cytochrome P450 isoforms (all main CYPs); assay: Cytochrome P450 inhibition; format: in vitro ADME; conditions: reversible inhibition, all Cyps; read-out: Rev Cyp Inhibition IC50
Text: as §2

CT26 colon cancer = CT26 colon cancer model; format: in vivo, mouse
CT26 colon carcinoma = assay: CT26 allograft model of mouse colon cancer; format: in vivo; conditions: FIG. 28
Protocol: CT26 is an N-nitroso-N-methylurethane-(NNMU) induced, undifferentiated colon carcinoma cell line. It was cloned to generate the cell line designated CT26.WT […] number CRL-2638). 5-6 week old female, Balb/c mice (Jackson Labs) were implanted subcutaneously with 5×10^5 CT26 cells in 200 μl PBS. CT26 cells were cultured in DMEM supplemented with 10% FBS.

LLC tumor brei = assay: Lewis Lung Carcinoma (LLC tumor brei) model; format: in vivo, mouse; conditions: single agent, FIG. 25A/25B
Protocol: Compound BB was tested in the Lewis Lung Carcinoma model, which is known in the art and briefly described hereinabove.
LLC tumor brei model was prepared and injected subcutaneously into a mouse in the hind flank region. The tumor brei was prepared as follows. LL2-Luc tumor cells were grown in culture in DMEM+10% FBS. Cells were implanted @ 1×10^6 cells/100 uL SC in the flank of C57 Albino mice (male) When tumors reached 1000 mm3, tumors were harvested. Only the white, living tissue was harvested. Any material containing visable blood or necrotic area was isolated away from the tumor tissue. Tumor tissue was placed in a Dounce tissue homoginized with 5 mLs of warm DMEM (no FBS). About 1-2 grams of tumor tissue was collected, homogenized, pooled into 50 mL falcon tube, and cells were counted. Cells were spinned @ 12,000 RPM, and FBS was pooled off. Cells were resuspended to equal 1×10^7 cells/mL with sterile PBS. 100 uL of cells/mouse SC at the hind flank region were implanted. This process was repeated one more time before conducting brei tumor efficacy study.

[7] = Oral exposure in the monkey; format: in vivo
Lewis Lung Carcinoma = Lewis Lung Carcinoma model; format: in vivo, mice
[8] = tested on: RANKL driven differentiation of osteoclasts from bone marrow macrophages; assay: Osteoclast differentiation assay (TRAP staining); format: cell-based, mouse; conditions: FIG. 17
Protocol: Bone Marrow Derived Macrophages as Osteoclast Progenitors: Long bones from young C57B6 mice were harvested and bone marrow was extruded by gentle lavage of the bone marrow cavities with a 28 gage needle. The cells were screened, and red blood cells were removed using red blood cell lysis buffer (Sigma). Bone marrow cells were differentiated to macrophages using 20 ng/ml mouse MCSF (RnD systems) for 3 days (RPMI and 20% FCS). The cell were washed with PBS, and lifted with Accutase for 10 minutes.
Osteoclast Differentiation Assay: The bone marrow macrophage cells were plated at 150,000 cells per well in a 96 well plate in a MEM 10% FCS. […] Then 25 ng/ml mouse MCSF with or without mouse RANKL (100 ng/ml, RnD systems) was added for 6 days. Media changes (including drugs) were done at day 3 and day 5. The cells were then fixed and stained with the tartrate resistant acid phosphatase (TRAP) assay kit from Sigma according to the manufactures instructions. TRAP positive cells (osteoclasts and cells undergoing an osteoclastic differentiation) in a transect of the triplicate wells (at 20× […]) were manually counted by going through the widest part of each well.

[9] = tested on: M1 macrophage differentiation; assay: M1 macrophage differentiation; format: cell-based
Protocol: A similar experiment was performed on M1 differentiation.

[10] = tested on: CXCL12-induced pAKT in T-cells; assay: CXCL12-induced pAKT assay in T-cells; format: cell-based, human; conditions: FIG. 9
Text: There was a tight correlation between the EC50s observed in the CXCL12-induced pAKT assay and the T-cell migration assay.

[11] = tested on: monocytic iMCs in CT26 subcutaneous tumors; assay: Flow cytometry of tumor-associated myeloid cells, CT26 subcutaneous tumors; format: in vivo, mouse; conditions: FIG. 38B
Protocol: Flow cytometry was performed to obtain a more extensive cellular subset analysis. In particular, the study examined T cell vs. Myeloid cells, Myeloid cell subsets, Regulatory vs. effector T cells, and Tumor markers vs. WBC (e.g., PD-L1 expression on tumor).
Different populations of tumor-associated myeloid cells can be identified by flow cytometry, e.g., monocytic immature myeloid cells (iMC),Granulocytic iMCs/Neutrophils, Tumor Associated Macrophages (TAMs), and Granulocytic MDSCs. The different populations, and panels for detecting MDSCs, are described in Cancer Discovery 2011; 1:54-67. Tumors may vary in their myeloid cell composition.

[12] = tested on: IL-8 induced neutrophil migration; assay: IL-8 driven murine air pouch model; conditions: mouse air pouch; BB 0.1-3 mg/kg, AA 10-50 mg/kg

C[C@H](NC(=O)c1c(N)nn2cccnc12)c1cc2cccc(C#Cc3cnn(C)c3)c2c(=O)n1-c1ccccc1 [Compound BB]
oral exposure (plasma concentrations within 24 hours) [1]: high
toxicity expected from in vitro toxicology studies [2]: very low toxicity
oral exposure (plasma concentrations within 24 hours) ([3]; rat, 7.5 mg/kg oral): high
dose-exposure proportionality (AUC 0-last) ([3]; rats, oral 10, 25, and 100 mg/kg): good dose-exposure proportionality
cellular membrane permeability [4]: high cellular membrane permeability
Papp [10−6 cm/s] @ 10 uM ([4]; 10 uM): High
fraction unbound at 1 uM (Plasma protein binding): 0.01 to 0.05
decrease in body weights compared to vehicle ([5]; high dose animals (50 mg/kg/day)): 5-8%
histopathology, thymus ([5]; males at ≧7.5 mg/kg/day, females at 50 mg/kg/day): minimal/mild lymphoid depletion
histopathology, spleen (marginal zone and PALS) ([5]; primarily at doses ≧20 mg/kg/day): minimal/mild lymphoid depletion
clinical pathology ([5]; primarily in 20 and 50 mg/kg/day groups): minimal changes in neutrophils, lymphocytes, and fibrinogen
histopathology, gross changes ([5]; rats, oral, 10 days): no significant gross changes
tolerability ([5]; rats, oral, 10 days, 1 to 50 mg/kg/day): well-tolerated
mortality and clinical signs ([5]; rats, oral, 10 days, any dose level): No mortality or clinical signs
combination effect (isobologram) (Farage cell line): synergistic effect
CYP inhibition (Cytochrome P450 isoforms): does not substantially inhibit CYP
reversible inhibition of main Cytochrome P450 isoforms (Cytochrome P450 isoforms): low potential for reversible inhibition
Time dep Cyp Inhibition @ 10 uM (Cytochrome P450 isoforms; time dependent, 10 uM): Neg
pIC50 [6]: < 5.00
MDSC expansion after cyclophosphamide treatment (CT26 colon cancer; CT26 colon cancer model): decreased
monocytic iMCs (CT26 colon cancer; CT26 subcutaneous tumors): decreased
MDSC expansion after cyclophosphamide treatment (CT26 colon carcinoma): decreased
tumor growth, Lewis Lung Carcinoma model (LLC tumor brei): single agent activity
oral exposure [7]: high
single agent activity (Lewis Lung Carcinoma): demonstrates single agent activity
RANKL driven differentiation of osteoclasts (TRAP positive cells) [8]: prevents RANKL driven differentiation of osteoclasts
M1 macrophage differentiation [9]: did not have an observable effect
inhibition of CXCL12-induced pAKT in T-cells [10]: inhibited CXCL12-induced pAKT in T-cells more strongly
monocytic iMCs [11]: decreased
IL-8 induced neutrophil migration [12]: blocks IL-8 induced neutrophil migration
